Values joined by “and” are separate entries in the source; they are usually repeats but may differ in a detail not shown here. Equal entries are not always repeated. Where two headings read alike, the source gives them in different places. Marks after values point to notes of the source that are not given here. Bounds are passed on as bounds.

The conditions of data set [1]: female, human, in vivo.
A further data set can be described thus: clinical. The following applies: female, human, in vivo.
For data set [2] the following is noted: mean ± S.D., N = 5; for Urinary excretion (total) during the first 24 h: after enzymatic deconjugation.
For data set [3] the following is noted: for unconjugated form in serum: before enzymatic deconjugation, early time points of medium and high dose subjects; for Cmax / half-life / Tmax / Vd/F: female, human, serum, po; for CL/F: oral.
The conditions of data set [4]: cited from earlier work.
The conditions of data set [5]: rats, cited from earlier work.
The conditions of data set [6]: in the stomach; cited from earlier work.
The conditions of data set [7]: rats, 100 mg/kg XN daily by oral gavage for 5 days; cited from earlier work.
For the next data set, the system named is Ishikawa cell line. The following applies: read-out: EC50, estrogenicity; Ishikawa cells; cited from earlier work.
For data set [8] the following is noted: cited from earlier work. The source holds these as a separate data set.
[9] abbreviates: 2 capsules/day, medium dose (2 capsules), mean ± S.D., N = 5.
Where [10] appears, read: 2 capsules/day, T1/2, medium dose (2 capsules), mean ± S.D., N = 5.
The mark [11] stands for this setting: 4 capsules/day, high dose (4 capsules), mean ± S.D., N = 5.
Setting [12] is: 4 capsules/day, T1/2, high dose (4 capsules), mean ± S.D., N = 5.
The mark [13] stands for this setting: high dose (4 capsules), mean ± S.D., N = 5.
Where [14] appears, read: low dose (1 capsule), mean ± S.D., N = 5.
Setting [15] is: medium dose (2 capsules), mean ± S.D., N = 5.
The mark [16] stands for this setting: half-life, across all dosages of the hop extract.

For `CC(C)=CCc1c(O)cc2c(c1O)C(=O)C[C@@H](c1ccc(O)cc1)O2` [6-PN, 6-prenylnaringenin], the “AUC0-24 ratios after normalization by dose” value in data set [1] was 1: 1.2: 0.5. For the same molecule, the Vd/F in “clinical” (apparent volume of distribution) was 887 to 1770 L; in the data set “clinical” (po) it was 887 ± 581 L. The molecule further returned an AUC(0-inf) in “clinical” (po, AUC0-inf) of 0.0692 ± 0.06 µg·h/mL. Moreover, the half-life is 23.5 ± 6.9 h in the data set “clinical” (po, T1/2) and 21 to 24 h in the data set “clinical” (po, half-life).
On to `COc1cc(O)c(CC=C(C)C)c2c1C(=O)CC(c1ccc(O)cc1)O2` (centres unmarked) [IX, isoxanthohumol], for which the “Urinary excretion (total) during the first 24 h” value in data set [2] (high dose) is reported as 172 ± 67.4 nmol; in data set [2] (low dose), 29.8 ± 32.3 nmol; in data set [2] (medium dose) it was 89.5 ± 54.5 nmol. For the same molecule, the “Urinary excretion (% of dose) during the first 24 h” value in data set [2] (high dose) is reported as 1.902±0.746%; in data set [2] (low dose), 1.318±1.428%; in [2] (medium dose), 1.98±1.205%. In addition, the “unconjugated form in serum” value in data set [3] is recorded as “detected”. Moreover, the maximum concentration (Cmax) in data set [3] (setting [9]) was 0.0191 ± 0.0155 µg/mL; in data set [3] (setting [11]), 0.0376 ± 0.0176 µg/mL. Besides, the values for the half-life in data set [3] (setting [10]) and in data set [3] (setting [12]) were 24.8 ± 24.3 h and 19.9 ± 8.7 h, respectively. In addition, the Tmax worked out at 3.2 ± 3.2 h in [3] (setting [9]) and 4 ± 4.8 h in data set [3] (setting [11]). Further, the values for the Vd/F in data set [3] (setting [9]) and in data set [3] (setting [11]) were 99 ± 56 L and 182 ± 53 L, respectively. Further, the CL/F in data set [3] (setting [13]) was 7.3 ± 3.5 L/h; in data set [3] (setting [14]), 7.1 ± 4.2 L/h; in [3] (setting [15]) it was 5.7 ± 4.9 L/h.
As to `COc1cc(O)c(CC=C(C)C)c(O)c1C(=O)/C=C/c1ccc(O)cc1` [XN, xanthohumol], the elimination half-life in [4] (humans, oral pure XN) was 18 to 20 h; in data set [5] (oral pure XN) it was 32 h. For the same molecule, the “time of secondary peak due to enterohepatic recirculation” value in data set [4] (men and women) is recorded as 4 h. Besides, in data set [5] (oral administration), the “share recovered in the feces in the first 48 h” value is on record as 89%. Moreover, the “half-life of conversion to IX by acid-catalyzed cyclization” value in [6] was 0.617 h. Moreover, the tissue distribution result in data set [7] is “highest concentrations in the small intestine, colon and the liver”. Moreover, the “Urinary excretion (total) during the first 24 h” value in data set [2] (high dose) is 138 ± 113 nmol; in data set [2] (low dose) it was 23.9 ± 17.9^a nmol; in [2] (medium dose), 37.0 ± 26.3 nmol. Moreover, the “Urinary excretion (% of dose) during the first 24 h” value is 0.058±0.047% in [2] (high dose), 0.040±0.030% in data set [2] (low dose) and 0.031±0.022% in data set [2] (medium dose). For the same molecule, the “unconjugated form in serum” value in data set [3] is “detected”. Further, the figures for the Cmax in data set [3] (setting [9]) and in data set [3] (setting [11]) were 0.0222 ± 0.0121 µg/mL and 0.0276 ± 0.0089 µg/mL, respectively. The half-life in data set [3] (setting [10]) is 9.5 ± 2.2 h; in data set [3] (setting [12]), 20.7 ± 12.7 h; in [3] (setting [16]), about 19 h. Moreover, the Tmax was determined as 3.6 ± 2.6 h in data set [3] (setting [9]) and 1.8 ± 1.8 h in data set [3] (setting [11]). Besides, the Vd/F in data set [3] (setting [9]) was determined as 3770 ± 1390 L; in data set [3] (setting [11]), 7880 ± 1810 L. Besides, the apparent clearance (CL/F) is 329 L/h and 329 ± 163 L/h in data set [3] (setting [13]); 657 L/h and 657 ± 670 L/h in data set [3] (setting [14]); 278 L/h and 278 ± 87 L/h in data set [3] (setting [15]).
Regarding `CC(C)=CCc1c(O)cc(O)c2c1O[C@H](c1ccc(O)cc1)CC2=O` [8-PN, 8-prenylnaringenin], in the data set with Ishikawa cell line, the half-maximal effective concentration (EC50) is 0.013 µM. Besides, in data set [8] (post dose, women), the “time of secondary peak due to enterohepatic recirculation” value is 5 to 8 h. Also, in [8] (single oral dose of 50 mg 8-PN, women), the AUC0-24 is given as 453 h^.ng/mL. Moreover, the “share of dose recovered in feces within 48 h” value in [8] (single oral doses to women) is 21-24%. In addition, the “Urinary excretion (total) during the first 24 h” value is 29.4 ± 22.9 nmol in data set [2] (high dose), 5.1 ± 4.4 nmol in [2] (low dose) and 21.3 ± 21.6 nmol in data set [2] (medium dose). Further, the results for the “Urinary excretion (% of dose) during the first 24 h” value in [2] (high dose), in [2] (low dose) and in data set [2] (medium dose) were 1.001±0.781%, 0.693±0.597% and 1.449±1.467%, respectively. Moreover, the “unconjugated form in serum” value in data set [3] is recorded as “no free 8-PN was detected”. For the same molecule, in [3] (extrapolated assuming AUC linear with dose), the “AUC0-24 of a theoretical dose of 50 mg 8-PN in the hop extract” value is on record as 2520 h^.ng/mL. The values for the peak concentration (Cmax) in [3] (setting [9]) and in data set [3] (setting [11]) were 0.0039 ± 0.0026 µg/mL and 0.0067 ± 0.0038 µg/mL, respectively. The half-life in [3] (setting [10]), in data set [3] (setting [12]) and in [3] (setting [16]) was over 24 h each time. Further, the values for the Tmax in data set [3] (setting [9]) and in data set [3] (setting [11]) were 7 ± 9.7 h and 2.8 ± 4 h, respectively. Further, the Vd/F in [3] (setting [9]) came to 186 ± 186 L; in [3] (setting [11]), 271 ± 216 L. Further, the CL/F came to 13.7 ± 5.5 L/h in data set [3] (setting [13]), 11.1 ± 3.4 L/h in data set [3] (setting [14]) and 10.4 ± 8.1 L/h in data set [3] (setting [15]). Moreover, the “ratio of total serum concentrations 8-PN/IX” value is 0.14 in data set [3] (mean of the other 4 subjects, high dose); 0.17 in [3] (mean value, medium dose); 0.35 in [3] (one subject with higher exposure, high dose, after enzymatic deconjugation); 0.65 in data set [3] (one subject with higher exposure, medium dose).

Source of the values: article PMC4265473 (Molecular nutrition & food research, 2014).
